Here are results for 89 molecules from ChEMBL document CHEMBL3301361, “Experimental in vitro DMPK and physicochemical data on a set of publicly disclosed compounds”.

This data set can be described thus: physchem. As to conditions: octan-1-ol/water.

The term logD denotes lipophilicity at a set pH, counting ionised and neutral species. A higher logD goes with a more lipophilic compound. The molecule `CC[C@H](NC(=O)c1c([S+](C)[O-])c(-c2ccccc2)nc2ccccc12)c1cccnc1` (some centres undefined) returned a pH-dependent lipophilicity (logD) (pH 7.4, LogD7.4) of 2.2. Where the note is “pH 7.4, LogD7.4”, `COc1cc2c(Nc3ncc(NC(=O)c4ccccc4)cn3)ncnc2cc1OCCCN1CCOCC1` yielded a logD of 2.32.

On to `O=C(Nc1ccc(N2CCOCC2)cn1)c1nnc(Nc2ccccc2F)o1`, for which the log distribution coefficient (logD) (pH 7.4, LogD7.4) amounted to 2.4. On the same count and under the same terms, next, `Cc1cc(-c2ccc(N3C[C@H](Cn4ccnn4)OC3=O)cc2F)on1`: 1.99. The molecule `Cc1ccc(-c2cn(C)cn2)cc1NC(=O)c1ccc(OCc2ccccn2)cc1` yielded a logD (pH 7.4, LogD7.4) of 2.54. Turning to `C1CCC(NC2CCCCC2)CC1`, under “pH 7.4”, the logD is -0.38. In the case of `CCN(CC)CCOC(=O)c1ccc(N)cc1` [PROCAINE], the logD (pH 7.4, LogD7.4) is 0.

Regarding `O=c1oc2cc(O)ccc2cc1-c1ccc(O)cc1`, the logD (pH 7.4, LogD7.4) came to 2.9. Still for that read-out and setting: to `CC(C)C(NC(=O)Cn1c(-c2ccccc2)ccc(NC(=O)NCc2ccc[n+]([O-])c2)c1=O)C(=O)C(F)(F)F` (centres undefined) belongs 1.48; to `C#CC(C)(C)NC(=O)c1sccc1Oc1ccc(F)cc1[N+](=O)[O-]`, 3; to `Clc1cccc(-n2nnnc2NCc2ccccc2Oc2ccccn2)c1Cl`, 3.62. Under “pH 7.4, LogD7.4”, `Cn1cc(C#N)cc1-c1c2c(=O)n(CCO)c(=O)n(CC3CC3)c2nn1Cc1ccnc2ccc(Cl)cc12` displayed a logD of 3.

`CCC(NC(=O)c1ccc(C)cc1)c1nc2ccsc2c(=O)n1Cc1ccccc1` (centres undefined): the logD (pH 7.4, LogD7.4) is 4.14. The molecule `CCN(C(=O)NCc1ccc(F)cc1)C1CCN(CCC(c2ccccc2)c2ccccc2)CC1` came in with a logD (pH 7.4, LogD7.4) of 3.9. Under “pH 7.4, LogD7.4”, `Cc1oc(C#N)cc1-c1c2c(=O)n(C)c(=O)n(CC3CC3)c2nn1Cc1ccnc2ccc(Cl)cc12` registered a logD of 4.26. Molecule `CCCSc1ncccc1C(=O)N(C)[C@H]1[C@@H]2CC3C[C@H]1C[C@@](O)(C3)C2` returned a logD (pH 7.4, LogD7.4) of 2.48. Molecule `O=S(=O)(c1ccccc1)C1(c2cc(N3CCOCC3)nc(-c3cccc4[nH]ccc34)n2)CC1` came in with a logD (pH 7.4, LogD7.4) of 3.4. The same measure, in the same setting: next, `CC(C)(C)NC(=O)C(c1ccncc1)N(Cc1ccco1)C(=O)c1ccc(-c2ccccc2)[nH]1` (centres undefined): 4.13; `N[C@@H](Cc1c[nH]c2ccccc12)C(=O)O` [TRYPTOPHAN]: -1.08; `Cc1cccc(C(=O)N2CCC(C(=O)c3ccc(F)cc3)CC2)c1`: 3.4.

Regarding `C=CCc1cc(NC(C)=O)ccc1OCCCNC(C)C`, the pH-dependent lipophilicity (logD) (pH 7.4, LogD7.4) is -0.01. On the same count and under the same terms, to `CN(C)CCNCc1ccc(Nc2ncc3cc(-c4ccncc4)ccc3n2)cc1` belongs 1.4; to `CCCS(=O)(=O)N1CCCC(C(=O)N2CCC(Cc3ccccc3)CC2)C1` (centres undefined), 3.44. The same measure, in the same setting: next, `CN(CCOc1ccc(C[C@H](Nc2ccccc2C(=O)c2ccccc2)C(=O)O)cc1)c1nc2ccccc2o1`: 2.47; `CS(=O)(=O)NCCC(NC(=O)C1(N)CCN(c2ncnc3[nH]ccc23)CC1)c1ccc(Cl)cc1` (centres undefined): 2.2. With `Cc1ccc(CO)cc1N(C)c1ccnc(Nc2cc(C(=O)N3CCOCC3)cc(N3CCOCC3)c2)n1`, the logD (pH 7.4, LogD7.4) worked out at 2.2.

`CCC1(c2cccc(O)c2)CCCCN(C)C1` (centres undefined) [MEPTAZINOL] registered a logD (pH 7.4) of 0.8.

In turn, `CC(C)C(NC(=O)Cn1c(-c2cccs2)ncc(NC(=O)OCc2ccccc2)c1=O)C(=O)C(F)(F)F` (centres undefined) had a logD (pH 7.4, LogD7.4) of 2.02. The same measure, in the same setting: next, `C[C@H]1O[C@@H](n2cnc3c(N)nc(OCC4CCC(F)(F)CC4)nc32)[C@H](O)[C@@H]1O`: 1.72. For `CCOc1ccc(-c2cnc3n2CCCCC3)cc1`, for the setting “pH 7.4, LogD7.4”, the pH-dependent lipophilicity (logD) was 3.01. As for `CCN(CC)CCOc1ccc(/C(=C(/Cl)c2ccccc2)c2ccccc2)cc1` [ENCLOMIPHENE], the log distribution coefficient (logD) (pH 7.4, LogD7.4) came out at 4.09. Same read-out and setting: to `CC(NC(=O)C1(N)CCN(c2ncnc3[nH]ccc23)CC1)c1ccc(S(C)(=O)=O)cc1` (centres undefined) belongs 1. Still for that read-out and setting: to `CCCc1c(OCc2ccc(C(=O)O)c(Br)c2)ccc(C(C)=O)c1O` belongs 2.3. `CCc1c(C)[nH]c2c1C(=O)C(CN1CCOCC1)CC2` (centres undefined) [MOLINDONE] had a logD (pH 7.4, LogD7.4) of 1.54. The same measure, in the same setting: next, `NC(N)=Nc1cc(Cl)nc(-c2ccccc2)n1`: 2.16. As to `Nc1nnc(Cc2ccc(Cl)cc2)s1`, the log distribution coefficient (logD) (pH 7.4) was found to be 2.34.

For the setting “pH 7.4, LogD7.4”, `Cc1cc2n[nH]c(=O)n2c2cc(-c3ccc[nH]3)ccc12` yielded a logD of 3.29. Where the note is “pH 7.4, LogD7.4”, `O=C(N[C@@H](Cc1ccc(N2CCN(c3ccccc3)CC2)cc1)C(=O)O)c1c(Cl)cccc1Cl` displayed a logD of 0.08. The same measure, in the same setting: next, `O=c1ccnc2ccccn12`: 0.2; `Cc1oc2cc(O)ccc2c(=O)c1-c1ccccc1`: 2.95; `CC(C)C(NC(=O)Cn1c(C2CCCCC2)ncc(NC(=O)OCc2ccccc2)c1=O)C(=O)C(F)(F)F` (centres undefined): 2.87.

Take `NC(=O)Nc1cc(-c2cccc(F)c2F)sc1C(=O)N[C@H]1CCCNC1`: for the setting “pH 7.4, LogD7.4”, the logD worked out at 1.32. For the molecule `C/N=C(\S)n1nc(-c2ccc(Cl)cc2)nc1N`, the logD (pH 7.4, LogD7.4) was 4.12. Molecule `CCS(=O)(=O)c1ccc(-c2cc(C(F)(F)F)ccc2O[C@H](C)C(=O)O)c(C)c1` yielded a log distribution coefficient (logD) (pH 7.4, LogD7.4) of -0.4.

As to `C[C@@H]1NC(C)(C)CO[C@@]1(O)c1cccc(Cl)c1` [RADAFAXINE], the logD (pH 7.4) amounted to 1.69. For the molecule `CCCSc1nc2ccc(NC(=O)CCC(=O)O)cc2s1`, the logD (pH 7.4, LogD7.4) worked out at 0.5. Same read-out and setting: to `N#Cc1cnn2c(N)cc(-c3cccs3)nc12` belongs 2.3. `CCCCCCCCCC(=O)N[C@@H](Cc1c[nH]c2ccccc12)C(=O)N[C@H](CC(N)=O)C(=O)N[C@@H](CC(=O)O)C(=O)N[C@@H]1C(=O)NCC(=O)N[C@@H](CCCN)C(=O)N[C@@H](CC(=O)O)C(=O)N[C@H](C)C(=O)N[C@@H](CC(=O)O)C(=O)NCC(=O)N[C@H](CO)C(=O)N[C@@H]([C@H](C)CC(=O)O)C(=O)N[C@@H](CC(=O)c2ccccc2N)C(=O)O[C@@H]1C` gave a logD (pH 7.4) of -0.94. In turn, `NC(=O)c1sc2nccc(Nc3ccccc3)c2c1N` returned a logD (pH 7.4, LogD7.4) of 2.91. The same measure, in the same setting: to `Cc1cc2nc(NC(=N)N)nc(C)c2cc1C` belongs 0.7; to `CCN1CCO[C@@H](CN2CCN(C(=O)Nc3ccc(Cl)c(Cl)c3)CC2)C1`, 2.68. `Cc1ccc(NC(=O)c2ccnc(N3CCOCC3)c2)cc1Nc1ccnc(OC2CCN(C)CC2)n1`: under “pH 7.4, LogD7.4”, the logD is 1.8. With `CCN(CC)C(=O)N[C@H]1C[C@@H]2c3cccc4[nH]cc(c34)C[C@H]2N(C)C1` [TERGURIDE], the logD (pH 7.4) is 2.73. As to `Cc1cccc(Br)c1C(=O)N[C@@H](Cc1ccc(NC(=O)c2c(Cl)cccc2Cl)cc1)C(=O)O`, the pH-dependent lipophilicity (logD) (pH 7.4, LogD7.4) is -0.13. As for `Cc1ccccc1C(=O)N1CCN(c2ccccn2)CC1`, the logD (pH 7.4, LogD7.4) came out at 2.18. Still for that read-out and setting: to `Cc1cccc(C)c1NC(=O)C(C)N` (centres undefined) [TOCAINIDE] belongs -0.15. Where the note is “pH 7.4, LogD7.4”, `O=C(C1CCCCC1)N1CC(=O)N2CCc3ccccc3C2C1` (centres undefined) [PRAZIQUANTEL] came in with a logD of 2.43. Same read-out and setting: to `CC(C)C(NC(=O)Cn1c(-c2ccccc2)ccc(NC(=O)OCc2ccc(C(=O)O)cc2)c1=O)C(=O)C(F)(F)F` (centres undefined) belongs 0.84. The molecule `CN(CCO)C(=O)c1ccc([C@H](c2cccc(NC(=O)C3CC3)c2)N2CCN(Cc3ccc(F)cc3)CC2)cc1` returned a logD (pH 7.4) of 3.38.

Where the note is “pH 7.4, LogD7.4”, `CC(C)C[C@H](CO)Nc1nc(SCc2ccccc2F)nc2nc(N)sc12` yielded a logD of 4.5. `O=C(Oc1ccc(Br)cc1)N1CCN2CCC1CC2` [SSR180711] displayed a logD (pH 7.4) of 1.58.

For `O=C1c2ccccc2C(=O)N1c1ccc(O)cc1`, the logD (pH 7.4, LogD7.4) amounted to 2. Same read-out and setting: to `Clc1ccc2[nH]ncc2c1` belongs 2.44. For `CN1C(=O)NC(=O)C(C)(C2=CCCCC2)C1=O` (centres undefined) [HEXOBARBITAL], under “pH 7.4”, the logD was 1.5.

As to `Cc1nc(-c2ccc(C)c(NC(=O)c3ccc(OCc4ccccn4)cc3)c2)c[nH]1`, the logD (pH 7.4, LogD7.4) was 2.97. Still for that read-out and setting: to `COc1cc(C(=O)Nc2cc(NC(=O)c3cccc(N(C)C)c3)ccc2C)cc(OC)c1OC` belongs 2.54. Regarding `C=C1C[C@@H]2[C@H](CC[C@]3(C)C(=O)CC[C@@H]23)[C@@]2(C)C=CC(=O)C=C12` [EXEMESTANE], the logD (pH 7.4) turned out to be 2.98. In turn, `Cc1ncc(-c2nc(Nc3ccc(C(N)=O)c(F)c3)ncc2F)n1C(C)C` displayed a logD (pH 7.4, LogD7.4) of 3.14. Still for that read-out and setting: next, `O=C(Nc1ccc(O)cc1)c1ccc(O)cc1`: 1.5; `NC(Cc1c[nH]c2ccccc12)C(=O)O` (stereo not drawn) [DL-TRYPTOPHAN]: -1.17.

For `CSc1nc2cc(Cl)ccc2[nH]1`, the logD (pH 7.4, LogD7.4) worked out at 3.22. Take `Cc1nc(C(=O)N2CCCC3(CCN(Cc4ccc(Cl)cc4)CC3)C2)cs1`: the logD (pH 7.4, LogD7.4) was determined as 0.64. `CN(C)c1nc(N[C@H]2CC[C@@H](NC(=O)c3ccc(F)c(F)c3)CC2)nc2ccccc12` displayed a logD (pH 7.4, LogD7.4) of 3.13. Still for that read-out and setting: next, `CCC(c1nc2sccc2c(=O)n1Cc1ccccc1)N(CCCN)C(=O)c1ccc(C)cc1` (centres undefined): 2.06; `CN(C)c1nc(N(C)C)nc(N(C)C)n1` [ALTRETAMINE]: 2.44; `Oc1ncnc2onc(-c3ccc(F)cc3)c12`: 1.97. In the case of `Oc1ccc2c3c1O[C@H]1c4[nH]c5ccccc5c4C[C@@]4(O)[C@@H](C2)N(CC2CC2)CC[C@]314` [NALTRINDOLE], where the note is “pH 7.4”, the logD amounted to 2.7. As to `c1ccc(C2OC3(CCNCC3)c3ccccc32)cc1` (centres undefined), the logD (pH 7.4, LogD7.4) turned out to be 0.75.

In turn, `Oc1ccc(-c2nc3ccc(O)cc3o2)cc1` yielded a logD (pH 7.4, LogD7.4) of 3.3.

`NC1(C(=O)NC(CCCN2CCOCC2)c2ccc(Cl)cc2)CCN(c2ncnc3[nH]ccc23)CC1` (centres undefined) gave a logD (pH 7.4, LogD7.4) of 2.7. On the same count and under the same terms, to `Cc1ccc(CO)cc1N(C)c1ccnc(Nc2cc(OC3CCOCC3)cc(N3CCOCC3)c2)n1` belongs 3.7; to `Cc1ccc(NC(=O)c2cccc(C(F)(F)F)c2)cc1NC(=O)c1ccc2ncccc2c1`, 3.87; to `O=c1cc(N2CCOCC2)oc2c(-c3cccc4c5c(sc34)CCCC5)cccc12`, 4.1. `CNCc1cccc(-c2ccc3c(N4CCOCC4)nc(N4C[C@@H](C)O[C@@H](C)C4)nc3n2)c1` gave a logD (pH 7.4, LogD7.4) of 1.26. Still for that read-out and setting: next, `NC1(C(=O)NC(c2ccc(Cl)cc2)C2CC2)CCN(c2ncnc3[nH]ccc23)CC1` (centres undefined): 3.4.

The molecule `CN(C)C(=O)N[C@H]1CC[C@H](CCN2[C@@H]3CC[C@H]2C[C@@H](Oc2cccc(C(N)=O)c2)C3)CC1` registered a logD (pH 7.4) of 0.12. On to `CC(C)C(NC(=O)Cn1c(-c2ccccc2)ccc(NC=O)c1=O)C(=O)C(F)(F)F` (centres undefined), for which, where the note is “pH 7.4, LogD7.4”, the pH-dependent lipophilicity (logD) came to 1.84. In turn, `Cn1cnc([N+](=O)[O-])c1Sc1ncnc2nc[nH]c12` [AZATHIOPRINE] displayed a logD (pH 7.4, LogD7.4) of 0.19.

For the setting “pH 7.4, LogD7.4”, `CN(c1ccccc1)c1ccnc(Nc2cc(N3CCOCC3)cc(N3CCOCC3)c2)n1` registered a logD of 3.47.
